From PubChem BioAssay (NCI)
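Where inhibition never reached the appropriate level, the endpoint shown equals the highest concentration tested. Otherwise, values were interpolated linearly from a five-concentration, 48-hour dose response in 96-well plates. GI50 is the concentration that inhibits growth by half. At the TGI there is no net growth.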

How the values were obtained:
Assay in all cases: NCI-60 cell line screen, 48 h
[1] = system: 786-0 renal
[2] = system: A498 renal
[3] = system: A549 NSCLC
[4] = system: ACHN renal
[5] = system: BT-549 breast
[6] = system: CAKI-1 renal
[7] = system: CCRF-CEM leukemia
[8] = system: COLO 205 colon
[9] = system: DU-145 prostate
[10] = system: HCC-2998 colon
[11] = system: HCT-116 colon
[12] = system: HCT-15 colon
[13] = system: HL-60(TB) leukemia
[14] = system: HOP-62 NSCLC
[15] = system: HOP-92 NSCLC
[16] = system: HS 578T breast
[17] = system: IGROV1 ovarian
[18] = system: KM12 colon
[19] = system: LOX IMVI melanoma
[20] = system: M14 melanoma
[21] = system: MCF7 breast
[22] = system: MDA-MB-231 breast
[23] = system: MDA-MB-435
[24] = system: MOLT-4 leukemia
[25] = system: NCI-H226 lung
[26] = system: NCI-H23 lung
[27] = system: NCI-H460 lung
[28] = system: NCI-H522 lung
[29] = system: NCI/ADR-RES ovarian
[30] = system: OVCAR-3 ovarian
[31] = system: OVCAR-4 ovarian
[32] = system: OVCAR-5 ovarian
[33] = system: OVCAR-8 ovarian
[34] = system: PC-3 prostate
[35] = system: RPMI-8226 leukemia
[36] = system: RXF 393 renal
[37] = system: SF-268 CNS
[38] = system: SF-295 CNS
[39] = system: SF-539 CNS
[40] = system: SK-MEL-2 melanoma
[41] = system: SK-MEL-28 melanoma
[42] = system: SK-MEL-5 melanoma
[43] = system: SK-OV-3 ovarian
[44] = system: SN12C renal
[45] = system: SNB-19 CNS
[46] = system: SNB-75 CNS
[47] = system: SR leukemia
[48] = system: SW-620 colon
[49] = system: T-47D breast
[50] = system: TK-10 renal
[51] = system: U251 CNS
[52] = system: UACC-257 melanoma
[53] = system: UACC-62 melanoma
[54] = system: UO-31 renal

CCCCCc1c(C)[nH]c(/C=c2\[nH]/c(=C3/C=c4ccccc4=N3)cc2OC)c1C
GI50 [1]: 49 nM | TGI [1]: 242 nM | GI50 [2]: 94.4 nM | TGI [2]: 1750 nM | GI50 [3]: 73.2 nM | TGI [3]: 636 nM | GI50 [4]: 122 nM | TGI [4]: 1290 nM | GI50 [5]: 80 nM | TGI [5]: 2140 nM | GI50 [6]: 42.5 nM | TGI [6]: 1560 nM | GI50 [7]: 43.5 nM | TGI [7]: 6030 nM | GI50 [8]: 56.8 nM | TGI [8]: 494 nM | GI50 [9]: 91.1 nM | TGI [9]: 16400 nM | GI50 [10]: 45.2 nM | TGI [10]: 5880 nM | GI50 [11]: 28 nM | TGI [11]: 1070 nM | GI50 [12]: 33.7 nM | TGI [12]: 1310 nM | GI50 [13]: 124 nM | TGI [13]: 3630 nM | GI50 [14]: 76.7 nM | TGI [14]: 438 nM | GI50 [15]: 23.6 nM | TGI [15]: 203 nM | GI50 [16]: 84.6 nM | TGI [16]: 883 nM | GI50 [17]: 265 nM | TGI [17]: 5250 nM | GI50 [18]: 51.1 nM | TGI [18]: > 100000 nM | GI50 [19]: 24.8 nM | TGI [19]: 67.6 nM | GI50 [20]: 29.5 nM | TGI [20]: 375 nM | GI50 [21]: 42.5 nM | TGI [21]: 1430 nM | GI50 [22]: 26.6 nM | TGI [22]: 232 nM | GI50 [23]: 45.5 nM | TGI [23]: 1160 nM | GI50 [24]: 102 nM | TGI [24]: 3850 nM | GI50 [25]: 77.7 nM | TGI [25]: 3950 nM | GI50 [26]: 236 nM | TGI [26]: 3100 nM | GI50 [27]: 61.4 nM | TGI [27]: 11200 nM | GI50 [28]: 101 nM | TGI [28]: 1700 nM | GI50 [29]: 170 nM | TGI [29]: 3720 nM | GI50 [30]: 109 nM | TGI [30]: 699 nM | GI50 [31]: 68.7 nM | TGI [31]: 16300 nM | GI50 [32]: 65.4 nM | TGI [32]: 1810 nM | GI50 [33]: 297 nM | TGI [33]: 1670 nM | GI50 [34]: 54.4 nM | TGI [34]: > 100000 nM | GI50 [35]: 61.4 nM | TGI [35]: 682 nM | GI50 [36]: 86 nM | TGI [36]: 755 nM | GI50 [37]: 77 nM | TGI [37]: 2430 nM | GI50 [38]: 90.2 nM | TGI [38]: 452 nM | GI50 [39]: 60.4 nM | TGI [39]: 659 nM | GI50 [40]: 39.4 nM | TGI [40]: 193 nM | GI50 [41]: 125 nM | TGI [41]: 1220 nM | GI50 [42]: 32.4 nM | TGI [42]: 110 nM | GI50 [43]: 449 nM | TGI [43]: 4550 nM | GI50 [44]: 92.6 nM | TGI [44]: 1880 nM | GI50 [45]: 226 nM | TGI [45]: 15400 nM | GI50 [46]: 107 nM | TGI [46]: 583 nM | GI50 [47]: 33.5 nM | TGI [47]: 529 nM | GI50 [48]: 34.1 nM | TGI [48]: 2840 nM | GI50 [49]: 58.8 nM | TGI [49]: 698 nM | GI50 [50]: 50.4 nM | TGI [50]: 716 nM | GI50 [51]: 67 nM | TGI [51]: 627 nM | GI50 [52]: 394 nM | TGI [52]: 1730 nM | GI50 [53]: 62.4 nM | TGI [53]: 355 nM | GI50 [54]: 88.2 nM | TGI [54]: 329 nM
